Assay results taken from patent publication US12729381B2, “Methods and compositions for inactivating interleukin-2-inducible t-cell kinase (ITK)” (priority 2020, dated 2026).
“Also recorded” adds a separate entry of the source.

Experiments:
[1] = tested on: other kinases including mTOR and AKT; experiment: Western blot of phospho-kinases in T cells cultured with commercially available ITK inhibitors; assay type: cell-based; details: mouse T cells (10n, CTA056) and human PBMC T cells (10n); pAKT, pmTOR
Description: Novel peptide inhibitor SLP76pTYR specifically targets ITK signaling and enhances Treg cell development. Since T cells from SLP76Y145FKI mice can separate GVHD from GVL, we sought to determine whether disruption of ITK signaling with pharmacological agents would have a similar effect. […] Thus, we sought to design a novel inhibitor that would explicitly target the SLP76-ITK interaction and signaling by preventing the SH2 domain of ITK from docking onto SLP76 at tyrosine 145. Since evolution usually selects residues at specific protein: protein interfaces for certain properties (Pletneva et al., 2006), we analyzed the physico-chemical and structural properties of the interface of the SH2 domain and SLP76-pY145 in our quest to generate a potent inhibitor of the ITK-SH2 domain: SLP76-pY145 interaction (FIG. 17A,B). […]
(FIG. 27A) WT mouse T cells were cultured with either 10n or vehicle, then lysed post-incubation, and lysates were western blotted for pITK (size 50-75 kDa), pPLCγ1 (size ~155 kDa), PERK (size ~42 kDa), pAKT (size ~60 kDa), and pmTOR (size 240 kDa). (FIG. 27B) Western blots from three experiments were quantitated and normalized to actin. […] (FIG. 27D) Western blots from three experiments were quantitated and normalized to actin. […] (FIG. 27F) Western blots from three experiments were quantitated and normalized to β-Actin. […]

S1P1 = S1P1 (Mus musculus, UniProt O08530); details: retention of T cells in secondary lymphoid organs; cited from earlier work
Sequence of S1P1 (O08530 whole entry): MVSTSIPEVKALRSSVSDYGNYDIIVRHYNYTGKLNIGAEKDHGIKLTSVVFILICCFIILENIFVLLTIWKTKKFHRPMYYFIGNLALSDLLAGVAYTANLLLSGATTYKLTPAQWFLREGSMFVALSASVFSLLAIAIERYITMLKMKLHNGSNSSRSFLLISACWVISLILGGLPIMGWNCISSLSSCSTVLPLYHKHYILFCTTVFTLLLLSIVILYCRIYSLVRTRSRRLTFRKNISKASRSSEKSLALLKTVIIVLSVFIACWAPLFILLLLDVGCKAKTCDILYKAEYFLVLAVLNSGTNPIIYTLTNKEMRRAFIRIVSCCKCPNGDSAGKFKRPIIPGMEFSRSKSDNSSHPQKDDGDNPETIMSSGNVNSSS

| Structure (SMILES) | specificity for ITK / inhibition of other kinases [1] | effect on GVHD and GVL (S1P1) |
| --- | --- | --- |
| O=c1[nH]c2cc3nc(-c4ccc(-c5ccncc5)cc4)n(CCCN4CCCCC4)c3cc2nc1Cc1ccccc1 [CTA056] | also inhibit several other kinases including mTOR and AKT; also recorded: not specific for ITK |  |
| CCCCCCCCc1ccc(CCC(N)(CO)CO)cc1 [FTY720] |  | ameliorates GVHD while maintaining GVL effects |
| CCc1ccc2nc(Nc3cc(Cc4ccccc4)nc(NC4CCC(O)CC4)n3)sc2c1 (stereo not drawn) [GSK2250665A] | also inhibit several other kinases including mTOR and AKT |  |
